From patent US9290777B2, “Putative cytokinin receptor and methods for use thereof” (NATIONAL UNIVERSITY OF SINGAPORE, priority 2007, dated 2016)

Key:
purified TAP-HOG1 = molecular target: T1, purified TAP-HOG1 (Arabidopsis thaliana, UniProt O23255); assay: biochemical; assay type: binding; details: ITC, ligand injected into purified TAP-HOG1; KD = 1/KA; read-out: KD (dissociation constant)
T1 construct: Protein A (ProtA part of the TAP tag, TEV site between ProtA and CBP) (N, cleaved yes); made in house; host or cells: transgenic Arabidopsis thaliana harbouring 35S:TAP-HOG1
T1 sequence (O23255 other isoform, or with tags, fused parts or gaps with the stated changes): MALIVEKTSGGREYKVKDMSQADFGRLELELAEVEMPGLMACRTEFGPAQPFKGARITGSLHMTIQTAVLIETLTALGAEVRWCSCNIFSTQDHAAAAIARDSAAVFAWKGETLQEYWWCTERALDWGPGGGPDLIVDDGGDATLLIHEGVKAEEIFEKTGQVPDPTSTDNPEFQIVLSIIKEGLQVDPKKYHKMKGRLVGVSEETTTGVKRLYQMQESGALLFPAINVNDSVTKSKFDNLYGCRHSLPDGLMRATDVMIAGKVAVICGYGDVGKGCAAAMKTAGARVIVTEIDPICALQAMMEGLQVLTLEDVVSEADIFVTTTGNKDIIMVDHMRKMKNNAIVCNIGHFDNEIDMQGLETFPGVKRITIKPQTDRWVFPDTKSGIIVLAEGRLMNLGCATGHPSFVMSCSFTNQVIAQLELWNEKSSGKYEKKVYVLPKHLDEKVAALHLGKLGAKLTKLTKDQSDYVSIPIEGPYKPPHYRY
Protocol: Cytokinin binding affinity and thermodynamic analysis of the interaction between HOG1 and cytokinins was examined by ITC (MCSITC, Microcal, Northampton, USA). Three naturally occurring cytokinins (zeatin, benzyladenine and isopentenyl adenine) and thidiazuron (an urea-derived synthetic cytokinin) were used. Additionally, adenosine and NAD were used as control molecules to verify the binding specificity of HOG1 to cytokinins. Data were analyzed by MICROCAL ORIGIN version 2.9 using the best-fit, nonlinear least-squares method for one binding site. The binding stoichiometry (n), and association constant (KA) were calculated from the fitted curves. Subsequently, KD was calculated as 1/KA. Raw heat data were corrected to baseline drift obtained from injections of 0.1 μM purified AHP1 into the sample cell containing 2 μM purified TAP-HOG1. Binding isotherms were created by plotting the heat peak areas against the molar ratio of AHP1 added to HOG1.
Cytokinin binding affinity and thermodynamic analysis of the interaction between HOG1 and cytokinins was examined by ITC (MCSITC, Microcal, Northampton, USA). TAP-HOG1 fusion protein was purified using published protocols (Forler et al. supra) from transgenic Arabidopsis plants harboring the 35S:TAP-HOG1 construct. 0.01 μM benzyladenine (a naturally occurring cytokinin) and 0.1 μM of purified TAP-HOG1 protein were used for each ITC assay with 25 injections (each injection of 2 μl at […] intervals at 37° C.). Data were analyzed with MICROCAL ORIGIN version 2.9 using the best-fit, nonlinear least-squares method for one binding site. The binding stoichiometry (n), and association constant (KA) were calculated from the fitted curves. Subsequently, KD was calculated as 1/KA.

ARR4 = assay: qRT-PCR of cytokinin responsive gene after BA pulse, fold change vs untreated wild type; assay type: cell-based, Arabidopsis thaliana
Protocol: For quantitative real-time PCR (qRT-PCR) analysis of cytokinin-inducible gene expression, seeds were germinated on MS medium with 3% (w/v) sucrose and grown for 6 days. Cytokinin treatment was carried out by incubating seedlings in the same MS+sucrose liquid medium (no agar) supplemented with 0, 0.01, 0.1, 1 or 5 μM [solubilized in 0.1% dimethylsulfoxide (DMSO) and diluted with the MS medium] for 5 min, 15 min, 30 min or 1 h. The control seedlings were incubated with DMSO (0.1%, the concentration used to dissolve cytokinins for the treatment) for the corresponding durations and used for expression analysis. Before RNA preparation, WT, OE and AS seedlings were pooled and stored in RNAlater solution (Qiagen, Valencia, Calif.). Total RNA was extracted using the Rneasy Plant Mini Kit (Qiagen). SYBRgreen RT-PCR reagents (Applied Biosystems) were used to synthesize double-stranded cDNA. The number of transcripts present in biological replicates each of WT, OE and AS seedlings, with or without BA and DMSO, was determined from three independent replicates. Fold induction of the transcripts was calculated according to the manufacturer's instructions (ABI Prism 7700 Sequence Detection System, User Bulletin #2).

Kd (purified TAP-HOG1): 0.0206 µM
SMILES: c1ccc(CNc2ncnc3nc[nH]c23)cc1 [benzyladenine]
ARR4 fold change (ARR4; BA 0.01 μM, 5 min, AS1, ↑ up): 4.12↑
ARR4 fold change (ARR4; BA 0.01 μM, 5 min, AS8, ↑ up): 6.1↑
ARR4 fold change (ARR4; BA 0.01 μM, 5 min, AS21, ↑ up): 8.01↑
ARR4 fold change (ARR4; BA 0.01 μM, 5 min, OE1, ↓ down): 5.01↓
ARR4 fold change (ARR4; BA 0.01 μM, 5 min, OE12, ↓ down): 5.87↓
ARR4 fold change (ARR4; BA 0.01 μM, 5 min, OE18, ↓ down): 7.56↓
ARR4 fold change (ARR4; BA 0.01 μM, 5 min, Wild type, ↑ up): 3.13↑
ARR4 fold change (ARR4; BA 0.01 μM, 15 min, AS1, ↑ up): 4.57↑
ARR4 fold change (ARR4; BA 0.01 μM, 15 min, AS8, ↑ up): 6.41↑
ARR4 fold change (ARR4; BA 0.01 μM, 15 min, AS21, ↑ up): 8.39↑
ARR4 fold change (ARR4; BA 0.01 μM, 15 min, OE1, ↓ down): 4.66↓
ARR4 fold change (ARR4; BA 0.01 μM, 15 min, OE12, ↓ down): 5.56↓
ARR4 fold change (ARR4; BA 0.01 μM, 15 min, OE18, ↓ down): 7.32↓
ARR4 fold change (ARR4; BA 0.01 μM, 15 min, Wild type, ↑ up): 3.67↑
ARR4 fold change (ARR4; BA 0.01 μM, 30 min, AS1, ↑ up): 4.98↑
ARR4 fold change (ARR4; BA 0.01 μM, 30 min, AS8, ↑ up): 6.86↑
ARR4 fold change (ARR4; BA 0.01 μM, 30 min, AS21, ↑ up): 8.53↑
ARR4 fold change (ARR4; BA 0.01 μM, 30 min, OE1, ↓ down): 4.41↓
ARR4 fold change (ARR4; BA 0.01 μM, 30 min, OE12, ↓ down): 5.13↓
ARR4 fold change (ARR4; BA 0.01 μM, 30 min, OE18, ↓ down): 7.13↓
ARR4 fold change (ARR4; BA 0.01 μM, 30 min, Wild type, ↑ up): 3.98↑
ARR4 fold change (ARR4; BA 0.01 μM, 1 h, AS1, ↑ up): 5.2↑
ARR4 fold change (ARR4; BA 0.01 μM, 1 h, AS8, ↑ up): 6.98↑
ARR4 fold change (ARR4; BA 0.01 μM, 1 h, AS21, ↑ up): 8.99↑
ARR4 fold change (ARR4; BA 0.01 μM, 1 h, OE1, ↓ down): 4.01↓
ARR4 fold change (ARR4; BA 0.01 μM, 1 h, OE12, ↓ down): 4.06↓
ARR4 fold change (ARR4; BA 0.01 μM, 1 h, OE18, ↓ down): 6.98↓
ARR4 fold change (ARR4; BA 0.01 μM, 1 h, Wild type, ↑ up): 4.15↑
ARR4 fold change (ARR4; BA 0.1 μM, 5 min, AS1, ↑ up): 5.14↑
ARR4 fold change (ARR4; BA 0.1 μM, 5 min, AS8, ↑ up): 7.12↑
ARR4 fold change (ARR4; BA 0.1 μM, 5 min, AS21, ↑ up): 9.11↑
ARR4 fold change (ARR4; BA 0.1 μM, 5 min, OE1, ↓ down): 4.56↓
ARR4 fold change (ARR4; BA 0.1 μM, 5 min, OE12, ↓ down): 4.91↓
ARR4 fold change (ARR4; BA 0.1 μM, 5 min, OE18, ↓ down): 6.89↓
ARR4 fold change (ARR4; BA 0.1 μM, 5 min, Wild type, ↑ up): 4.36↑
ARR4 fold change (ARR4; BA 0.1 μM, 15 min, AS1, ↑ up): 5.39↑
ARR4 fold change (ARR4; BA 0.1 μM, 15 min, AS8, ↑ up): 7.32↑
ARR4 fold change (ARR4; BA 0.1 μM, 15 min, AS21, ↑ up): 9.26↑
ARR4 fold change (ARR4; BA 0.1 μM, 15 min, OE1, ↓ down): 4.24↓
ARR4 fold change (ARR4; BA 0.1 μM, 15 min, OE12, ↓ down): 4.71↓
ARR4 fold change (ARR4; BA 0.1 μM, 15 min, OE18, ↓ down): 4.72↓
ARR4 fold change (ARR4; BA 0.1 μM, 15 min, Wild type, ↑ up): 4.58↑
ARR4 fold change (ARR4; BA 0.1 μM, 30 min, AS1, ↑ up): 5.69↑
ARR4 fold change (ARR4; BA 0.1 μM, 30 min, AS8, ↑ up): 7.57↑
ARR4 fold change (ARR4; BA 0.1 μM, 30 min, AS21, ↑ up): 9.48↑
ARR4 fold change (ARR4; BA 0.1 μM, 30 min, OE1, ↓ down): 4.12↓
ARR4 fold change (ARR4; BA 0.1 μM, 30 min, OE12, ↓ down): 4.59↓
ARR4 fold change (ARR4; BA 0.1 μM, 30 min, OE18, ↓ down): 4.36↓
ARR4 fold change (ARR4; BA 0.1 μM, 30 min, Wild type, ↑ up): 4.89↑
ARR4 fold change (ARR4; BA 0.1 μM, 1 h, AS1, ↑ up): 5.98↑
ARR4 fold change (ARR4; BA 0.1 μM, 1 h, AS8, ↑ up): 7.99↑
ARR4 fold change (ARR4; BA 0.1 μM, 1 h, AS21, ↑ up): 9.83↑
ARR4 fold change (ARR4; BA 0.1 μM, 1 h, OE1, ↓ down): 3.96↓
ARR4 fold change (ARR4; BA 0.1 μM, 1 h, OE12, ↓ down): 4.21↓
ARR4 fold change (ARR4; BA 0.1 μM, 1 h, OE18, ↓ down): 4.01↓
ARR4 fold change (ARR4; BA 0.1 μM, 1 h, Wild type, ↑ up): 4.99↑
ARR4 fold change (ARR4; BA 1.0 μM, 5 min, AS1, ↑ up): 6.43↑
ARR4 fold change (ARR4; BA 1.0 μM, 5 min, AS8, ↑ up): 8.01↑
ARR4 fold change (ARR4; BA 1.0 μM, 5 min, AS21, ↑ up): 9.93↑
ARR4 fold change (ARR4; BA 1.0 μM, 5 min, OE1, ↓ down): 3.76↓
ARR4 fold change (ARR4; BA 1.0 μM, 5 min, OE12, ↓ down): 4.19↓
ARR4 fold change (ARR4; BA 1.0 μM, 5 min, OE18, ↓ down): 3.36↓
ARR4 fold change (ARR4; BA 1.0 μM, 5 min, Wild type, ↑ up): 5.1↑
ARR4 fold change (ARR4; BA 1.0 μM, 15 min, AS1, ↑ up): 6.68↑
ARR4 fold change (ARR4; BA 1.0 μM, 15 min, AS8, ↑ up): 8.43↑
ARR4 fold change (ARR4; BA 1.0 μM, 15 min, AS21, ↑ up): 10.02↑
ARR4 fold change (ARR4; BA 1.0 μM, 15 min, OE1, ↓ down): 3.51↓
ARR4 fold change (ARR4; BA 1.0 μM, 15 min, OE12, ↓ down): 4.01↓
ARR4 fold change (ARR4; BA 1.0 μM, 15 min, OE18, ↓ down): 3.21↓
ARR4 fold change (ARR4; BA 1.0 μM, 15 min, Wild type, ↑ up): 5.31↑
ARR4 fold change (ARR4; BA 1.0 μM, 30 min, AS1, ↑ up): 6.73↑
ARR4 fold change (ARR4; BA 1.0 μM, 30 min, AS8, ↑ up): 8.69↑
ARR4 fold change (ARR4; BA 1.0 μM, 30 min, AS21, ↑ up): 10.35↑
ARR4 fold change (ARR4; BA 1.0 μM, 30 min, OE1, ↓ down): 3.29↓
ARR4 fold change (ARR4; BA 1.0 μM, 30 min, OE12, ↓ down): 3.89↓
ARR4 fold change (ARR4; BA 1.0 μM, 30 min, OE18, ↓ down): 3.01↓
ARR4 fold change (ARR4; BA 1.0 μM, 30 min, Wild type, ↑ up): 5.59↑
ARR4 fold change (ARR4; BA 1.0 μM, 1 h, AS1, ↑ up): 7.01↑
ARR4 fold change (ARR4; BA 1.0 μM, 1 h, AS8, ↑ up): 8.93↑
ARR4 fold change (ARR4; BA 1.0 μM, 1 h, AS21, ↑ up): 10.76↑
ARR4 fold change (ARR4; BA 1.0 μM, 1 h, OE1, ↓ down): 3.01↓
ARR4 fold change (ARR4; BA 1.0 μM, 1 h, OE12, ↓ down): 3.56↓
ARR4 fold change (ARR4; BA 1.0 μM, 1 h, OE18, ↓ down): 2.92↓
ARR4 fold change (ARR4; BA 1.0 μM, 1 h, Wild type, ↑ up): 5.87↑
ARR4 fold change (ARR4; BA 5.0 μM, 5 min, AS1, ↑ up): 6.98↑
ARR4 fold change (ARR4; BA 5.0 μM, 5 min, AS8, ↑ up): 8.98↑
ARR4 fold change (ARR4; BA 5.0 μM, 5 min, AS21, ↑ up): 10.43↑
ARR4 fold change (ARR4; BA 5.0 μM, 5 min, OE1, ↓ down): 3.19↓
ARR4 fold change (ARR4; BA 5.0 μM, 5 min, OE12, ↓ down): 3.87↓
ARR4 fold change (ARR4; BA 5.0 μM, 5 min, OE18, ↓ down): 2.45↓
ARR4 fold change (ARR4; BA 5.0 μM, 5 min, Wild type, ↑ up): 6.52↑
ARR4 fold change (ARR4; BA 5.0 μM, 15 min, AS1, ↑ up): 7.01↑
ARR4 fold change (ARR4; BA 5.0 μM, 15 min, AS8, ↑ up): 9.07↑
ARR4 fold change (ARR4; BA 5.0 μM, 15 min, AS21, ↑ up): 10.54↑
ARR4 fold change (ARR4; BA 5.0 μM, 15 min, OE1, ↓ down): 3.01↓
ARR4 fold change (ARR4; BA 5.0 μM, 15 min, OE12, ↓ down): 3.62↓
ARR4 fold change (ARR4; BA 5.0 μM, 15 min, OE18, ↓ down): 2.18↓
ARR4 fold change (ARR4; BA 5.0 μM, 15 min, Wild type, ↑ up): 6.69↑
ARR4 fold change (ARR4; BA 5.0 μM, 30 min, AS1, ↑ up): 7.23↑
ARR4 fold change (ARR4; BA 5.0 μM, 30 min, Wild type, ↑ up): 6.89↑
